Results taken from US20260090980A1, “COSMETIC COMPOSITIONS AND METHODS OF USING THE SAME” (MARY KAY INC., priority 2022, published 2026).

Test system: lipolysis
Assay: In-vitro activity: lipolysis
Assay type: cell-based
Details: 3 %

SMILES: Cn1c(=O)c2c(ncn2C)n(C)c1=O [Caffeine]
- Activity: lipolysis: Lipolysis
